Reference: patent US8629174B2, “Unifying mechanism and methods to prevent cancer and neurodegenerative diseases” (Prevention L.L.C., priority 2002, dated 2014)

Columns and labels:
DNA = experiment: Reaction of E2-3,4-Q or enzymatically-activated 4-OHE2 with DNA in vitro; assay type: biochemical; conditions: enzymatically activated (peroxidases, tyrosinase, microsomes), all cases
Experimental: To determine whether DNA adducts are formed in biological systems, E2-3,4-Q or enzymatically-activated 4-hydroxyestradiol (4-OHE2) was reacted with DNA for 2 h at 37° C. The stable adducts were quantified by the ^32P-postlabeling method, and the depurinating adducts were analyzed by high pressure liquid chromatography (HPLC) interfaced with an electrochemical detector. When E2-3,4-Q reacted with DNA, almost the same amount of the depurinating adducts 4-OHE2-1-N3Ade and 4-OHE2-1-N7Gua were obtained, and the amount of stable adducts was 0.02% of the depurinating ones. Activation of 4-OHE2 by horseradish peroxidase gave similar results, whereas the mammalian lactoperoxidase produced a similar amount of N3Ade adduct, but about 50% more N7Gua adduct. The same two depurinating adducts were obtained in equal but smaller amounts when 4-OHE2 was activated with tyrosinase or phenobarbital-induced rat liver microsomes. In all cases, the level of stable adducts was 0.02% or less compared to the depurinating adducts (Li K. M., et al., Proc. Am. Assoc. Cancer Res., 39, 636 (1998); Cavalieri, et al., unpublished results).

Harvey (H)-ras oncogene = experiment: H-ras mutations in mouse skin papillomas initiated by PAH; assay type: in vivo; conditions: codon 61, skin papillomas
[1] = system: H-ras gene codon 61 (CAA to CTA); experiment: PCR-RFLP detection of H-ras codon 61 mutations in treated mouse skin; assay type: in vivo
From the text: In this technique, a segment of the H-ras gene is PCR-amplified and the product is restricted with XbaI to examine the induction of a RFLP from the codon 61 mutation. It was observed that at one day, 0.1% of the H-ras genes in the treated area of skin contained the codon 61 mutation, and then the population of these mutations increased to a maximum of 5% between 3 and 4 days after DB[a,l]P treatment. Subsequently, the level of mutations was reduced to background levels (0.0001%). The early time of induction of the codon 61 mutations (one day after DB[a,l]P treatment) coincides with suppression of DNA synthesis and induction of excision repair. Therefore, perhaps DB[a,l]P-induced DNA damage is converted into mutations by error-prone excision repair in pre-S-phase cells. (Chakravarti D., et al., Oncogene, 16, 3203-3210 (1998); Slaga T. J., et al., Cancer Res., 34a, 771-777 (1974); Sawyer T. W., et al., Carcinogenesis, 9, 1197-1202 (1988); Gill R. D., et al., Environ. Mol. Mutagen., 18, 200-206 (1991).)

mouse skin DNA = experiment: DNA adducts formed in mouse skin by PAH; assay type: in vivo
H-ras gene = experiment: H-ras mutation spectra in treated mouse skin (PCR, cloning, sequencing, with or without TDG treatment); assay type: in vivo; conditions: for A/T to G/C mutations, percent of total mutations / A/T to G/C mutations/total mutations: skin DNA
Experimental: Evidence in support of this was obtained from a comparative study of mutations in the mouse skin H-ras gene induced by 200 nmol of DB[a,l]P or 200 nmol of anti-DB[a,l]P-11,12-dihydrodiol-13,14-epoxide (anti-DB[a,l]PDE). Unlike DB[a,l]P, anti-DB[a,l]PDE forms 97% stable adducts and 3% depurinating adducts in DNA. In these experiments, the types of mutations that are induced in the early preneoplastic times was identified (12 h to 9 days after treatment) and then analyzed whether these mutations were induced as a result of error-prone repair (FIG. 4). The mutations were identified by PCR amplifying a segment of the H-ras gene from DNA extracted from mouse skin treated with one of the carcinogens, cloning the PCR products in a plasmid, isolating individual subclones and sequencing the H-ras inserts to identify mutations. (Chakravarti D., et al., Mutation Res., 456, 17-32 (2000); Cavalieri E. L. and Rogan E. G., Mechanisms of tumor initiation by polycyclic aromatic hydrocarbons in mammals. In: The Handbook of Environmental Chemistry: PAHs and Related Compounds, 3J, 81-117, Neilson A. H. (ed.), Springer, Heidelberg, Germany (1998).)
In this technique, G.T heteroduplexes in skin DNA are converted to G.apyrimidinic sites by treatment with T.G-DNA glycosylase (TDG) (FIG. 5). (Chakravarti D., et al., Mutation Res., 456, 17-32 (2000).)
Since abasic site-containing DNA molecules are refractory to PCR amplification, the conversion of G.T heteroduplexes into G. apyrimidinic sites makes H-ras molecules containing these heteroduplexes unamplifiable. […] As a result, PCR amplification of the H-ras gene from TDG-treated skin DNA, followed by cloning the PCR product and isolating and determining the sequence of individual subclones, causes a specific, drastic reduction of A to G mutations in the mutation spectra. In addition, the preferential PCR amplification artificially enriches low-abundance mutations that are observed only in TDG-treated spectra.
Following the entry of skin cells into S-phase, however, the G.T heteroduplexes are converted into G.C and A.T base pairs by one round of replication. […] Thus, the specific reduction of A to G mutations in the mutation spectra by the TDG-PCR procedure characterizes these mutations as G.T heteroduplexes. […] Therefore, A to G mutations remained as G.T heteroduplexes until one day after DB[a,l]P treatment of the skin; beyond which they were present as G.C and A.T mutations, presumably by replication. Flow cytometric analysis of epidermal keratinocytes isolated from DB[a,l]P-treated mouse skin confirms that cells begin to enter the S-phase one day after the treatment. (Chakravarti D., et al., Mutation Res., 456, 17-32 (2000); Chakravarti et al., unpublished results).
Treatment of mouse skin with 200 nmol of E2-3,4-Q induced primarily A/T to G/C mutations in the H-ras gene (FIG. 7). For example, 6 h after E2-3,4-Q treatment, 7 mutations were identified among 29 H-ras inserts. Five of the seven were A/T to G/C mutations. At 12 h, four out of the six mutations found in 30 H-ras inserts were A/T to G/C mutations. […] The observation that E2-3,4-Q induces mutations at 6 h is, therefore, a basis to propose that these mutations are induced by error-prone repair. To confirm this, TDG-PCR analysis of these mutations was conducted (FIG. 7). […] At 12 h, the change was from 4 in 30 H-ras inserts to 0 in 41 plasmids. […] The TDG-treated 1 day spectrum was dominated by two clonal mutations of equal frequency (codon 16 AAG to AGG and intronic C to T mutations). Because it is unlikely that the intronic mutation would affect Ras activity and the two clonal mutations were found in the same frequency, these mutations may be allelic, belonging to a clonally proliferating population. […] (Chakravarti D., et al., Oncogene, 20, 7945-7953 (2001).)

cloned H-ras gene (pWT) = experiment: Mutations after PCR of pWT plasmid treated in vitro, with or without TDG; conditions: pWT DNA
From the text: FIGS. 4A-D depict H-ras mutations induced by DB[a,l]P or its metabolite, anti-DB[a/l]PDE. Wild type sequences and nucleotide numbers (GenBank accession No. U89950) are indicated below and mutations are indicated above the line. (A) PCR artifact mutations induced in untreated skin DNA and in a cloned H-ras gene (pWT) treated with anti-DB[a,l]PDE or with acid. Under the treatment conditions, anti-DB[a,l]PDE induces 1 adduct per 1000 bases and acid induces 1 depurination per 170 bases (Chakravarti, D. Et al., Mutat. Res., 456, 17-32 (2000)). (B) H-ras mutations in mouse skin DNA after treatment with 200 nmol DB[a,l]P in 100 μL acetone. At 12 h-1 d, the spectra contained mostly A/T to G/C mutations. At days 2 and 3, multiple codon 61 mutations were observed. At 4 d, no clear pattern of mutations could be determined. At days 5 and 6, multiple codon 52 (CTA to CCA) mutations were observed. […] (C) H-ras mutations in mouse skin DNA after treatment with 200 nmol of anti-DB[a,l]PDE in 100 μL acetone. Fifty to sixty percent of mutations between days 1 to 4 were A/T to G/C mutations. (D) H-ras mutations after TDG treatment of DNA from anti-DB[a,l]PDE-treated pWT and from DB[a,l]P- or anti-DB[a,l]PDE-treated mouse skin. […] These mutations were also observed at days 2 and 3. In addition, at days 2 and 3, multiple codon 13 (GGC to GTC) mutations were observed.
On the other hand, anti-DB[a,l]PDE formed approximately 50% A/T to G/C mutations, which correlated with 48.5% formation of anti-DB[a,l]PDE-Ade stable adducts in mouse skin DNA (Table 2). […] Studies conducted in other laboratories also indicate that nucleotide excision repair of bulky stable adducts is error-free. When the pWT plasmid was treated with anti-DB[a,l]PDE in vitro (97% bulky stable adducts) and subjected to PCR amplification, A/T to G/C mutations was also found to constitute 50% of all mutations (5 out of 10) (FIG. 4A). These mutations are induced by translesional synthesis over bulky stable adducts by the PCR polymerases. If, as has been proposed by others, only a small population of PAH-induced bulky stable adducts is removed by pre-replication repair, a large fraction of anti-DB[a,l]PDE-induced adducts would persist in the mouse skin DNA. It is, therefore, possible that the mutations found in anti-DB[a,l]PDE-treated mouse skin DNA are adduct-induced PCR artifacts. The similarity of the frequencies of A/T to G/C mutations in vitro and in skin is consistent with this idea.

Structure (SMILES): C[C@]12CC[C@@H]3c4ccc(O)c(O)c4CC[C@H]3[C@@H]1CC[C@@H]2O [4-OHE2, 4-hydroxyestradiol]
- level of stable adducts compared to the depurinating adducts (DNA): ≤ 0.02%

Structure (SMILES): c1ccc2c(c1)cc1ccc3cccc4c5ccccc5c2c1c34 [DB[a,l]P, dibenzo[a,l]pyrene]
- H-ras Mutations, No. of mutations/No. of mice, CAA→CTA (Harvey (H)-ras oncogene): 10/12 CAA→CTA
- H-ras genes in treated skin containing the codon 61 mutation ([1]; 200 nmol, at one day): 0.1%
- H-ras genes containing the codon 61 mutation, maximum ([1]; 200 nmol, between 3 and 4 days after treatment): 5%
- level of codon 61 mutations, subsequently reduced to background levels ([1]; after days 3-4): 0.0001%
- depurinations through depurinating adducts versus spontaneous base loss (mouse skin DNA; spontaneous: 10,000-20,000 depurinations/cell/day): approximately 120 fold
- A/T to G/C mutations, percent of total mutations (H-ras gene; day 1, +TDG): 20%
- A/T to G/C mutations/total mutations (H-ras gene; day 1, +TDG): 2/10
- A/T to G/C mutations, percent of total mutations (H-ras gene; day 1, −TDG): 90%
- A/T to G/C mutations/total mutations (H-ras gene; day 1, −TDG): 10/11
- A/T to G/C mutations, percent of total mutations (H-ras gene; day 2, +TDG): 27%
- A/T to G/C mutations/total mutations (H-ras gene; day 2, +TDG): 6/22
- A/T to G/C mutations, percent of total mutations (H-ras gene; day 2, −TDG): 31%
- A/T to G/C mutations/total mutations (H-ras gene; day 2, −TDG): 11/35
- A/T to G/C mutations, percent of total mutations (H-ras gene; day 3, +TDG): 32%
- A/T to G/C mutations/total mutations (H-ras gene; day 3, +TDG): 8/25
- A/T to G/C mutations, percent of total mutations (H-ras gene; day 3, −TDG): 31%
- A/T to G/C mutations/total mutations (H-ras gene; day 3, −TDG): 7/22

Structure (SMILES): Cc1c2ccccc2c(C)c2c1ccc1ccccc12 [DMBA, 7,12-dimethylbenz[a]anthracene]
- H-ras Mutations, No. of mutations/No. of mice, CAA→CTA (Harvey (H)-ras oncogene): 4/4 CAA→CTA

Structure (SMILES): OC1c2cc3ccc4cccc5c6ccccc6c(c2C2OC2C1O)c3c45 (stereo not drawn) [anti-DB[a,l]PDE, anti-dibenzo[a,l]pyrene-11,12-dihydrodiol-13,14-epoxide]
- depurinating adducts formed, share of adducts (mouse skin DNA; DNA): 3%
- stable adducts formed, share of adducts (mouse skin DNA; DNA): 97%
- Ade stable adducts formed (mouse skin DNA; mouse skin DNA): 48.5%
- A/T to G/C mutations, percent of total mutations (cloned H-ras gene (pWT); +TDG): 60%
- A/T to G/C mutations/total mutations (cloned H-ras gene (pWT); +TDG): 3/5
- A/T to G/C mutations, percent of total mutations (cloned H-ras gene (pWT); −TDG): 50%
- A/T to G/C mutations/total mutations (cloned H-ras gene (pWT); −TDG): 5/10
- A/T to G/C mutations formed, share of mutations (H-ras gene; mouse skin): approximately 50%
- A/T to G/C mutations, percent of total mutations (H-ras gene; day 1, +TDG): 80%
- A/T to G/C mutations/total mutations (H-ras gene; day 1, +TDG): 4/5
- A/T to G/C mutations, percent of total mutations (H-ras gene; day 1, −TDG): 62.5%
- A/T to G/C mutations/total mutations (H-ras gene; day 1, −TDG): 5/8
